{
  "source": "ChEMBL document CHEMBL3507680",
  "about": "“University of Dundee, Gates Library screen for HepG2 cell viability”",
  "data": [
    {"assay": "Human HepG2 cell viability assay in 384 well format", "format": "toxicity, cell-based", "design": "dose 125 nL, time 70.5 hour; cytotoxicity at 70.5 h: concentration not given beside the values", "details": "HepG2 cells, read-out: Inhibition", "units": {"cytotoxicity at 70.5 h": "%"}, "values": [
      {"smiles": "Cn1cc(NC(=O)CCCc2cccs2)c(=O)n(C)c1=O", "cytotoxicity at 70.5 h": 5.9},
      {"smiles": "O=C(c1csc(I)c1)N1CCc2c(ncn2C2CC2)C1", "cytotoxicity at 70.5 h": -3.47},
      {"smiles": "CCc1[nH]ncc1C(=O)N1CCCC(n2ccnc2C)C1", "note": "(configuration not stated)", "cytotoxicity at 70.5 h": -7.72},
      {"smiles": "CN1C[C@@H](n2cnc(-c3ccccc3)c2-c2ncc[nH]2)C[C@H]1C(=O)O", "cytotoxicity at 70.5 h": 5.36},
      {"smiles": "CN(Cc1nnc(-c2ccco2)o1)CC1CCCN1c1cccnn1", "note": "(configuration not stated)", "cytotoxicity at 70.5 h": 5.51},
      {"smiles": "Cc1[nH]nc(CCC(=O)N2CCc3c(nc[nH]c3=O)C2)c1C", "cytotoxicity at 70.5 h": -15.9},
      {"smiles": "CC(c1ccc(Cl)cc1)N1CCN(CCCS(N)(=O)=O)CC1", "note": "(configuration not stated)", "cytotoxicity at 70.5 h": 35.8},
      {"smiles": "Cn1nc(C(=O)N2CCCC2)c2c1CN(CC1CCOCC1)C2", "cytotoxicity at 70.5 h": 4.3},
      {"smiles": "O=S1(=O)COCCN1CCOc1ccccc1", "cytotoxicity at 70.5 h": 17.3},
      {"smiles": "CCn1ccnc1CNCC1CCCN1c1cc(NC)ncn1", "note": "(configuration not stated)", "cytotoxicity at 70.5 h": -4.32},
      {"smiles": "CN(Cc1ccco1)Cc1cnc2n1CCN(c1ncccn1)CC2", "cytotoxicity at 70.5 h": -9.53},
      {"smiles": "N[C@@H]1CC[C@H](C(=O)NCc2ccc3nonc3c2)C1", "cytotoxicity at 70.5 h": -13.2},
      {"smiles": "CCN1Cc2ccccc2N(C(=O)C2CCC2)CCC1=O", "cytotoxicity at 70.5 h": -5.17},
      {"smiles": "CSCCC(=O)NCc1cc2n(n1)CCN(C(=O)N(C)C)C2", "cytotoxicity at 70.5 h": -8.07},
      {"smiles": "CN(Cc1cncnc1)[C@@H]1CN(Cc2ccco2)C[C@@H]2CCCO[C@@H]21", "cytotoxicity at 70.5 h": -14.6},
      {"smiles": "CN(CCO)C[C@@H]1CN(C(=O)c2c(F)cccc2Cl)C[C@@H]1CO", "cytotoxicity at 70.5 h": -8.11},
      {"smiles": "Cc1ccc(-c2nnc(CNC(=O)c3cccnc3)o2)cn1", "cytotoxicity at 70.5 h": -16.3},
      {"smiles": "O=C(NC1CCN(CC2CC2)C1)c1ccc(C(=O)c2cc[nH]c2)cc1", "note": "(configuration not stated)", "cytotoxicity at 70.5 h": -9.44},
      {"smiles": "O=C1CCC2(CCCN(C(=O)c3cnccn3)CC2)N1", "note": "(configuration not stated)", "cytotoxicity at 70.5 h": 1.43},
      {"smiles": "CSc1ccsc1C(=O)NC(Cc1ccccc1)C(N)=O", "note": "(configuration not stated)", "cytotoxicity at 70.5 h": -1.87},
      {"smiles": "O=C1NC[C@@]2(C(=O)O)CN(Cc3ccc(Oc4ccccc4)cc3)C[C@@H]12", "cytotoxicity at 70.5 h": -1.43},
      {"smiles": "COc1cc(OC)c(C2CC(=O)Oc3cc(C)[nH]c(=O)c32)cc1OC", "note": "(configuration not stated)", "cytotoxicity at 70.5 h": -19.4},
      {"smiles": "COc1ccc(CN2CCc3nnc(COCCN(C)C)n3CC2)cc1", "cytotoxicity at 70.5 h": -17.3},
      {"smiles": "Cc1ccc2cc(C(=O)N3CCCCC3c3nc[nH]n3)ccc2n1", "note": "(configuration not stated)", "cytotoxicity at 70.5 h": 11.1},
      {"smiles": "N#Cc1cccnc1N1CCN(C(=O)c2cccs2)CC1", "cytotoxicity at 70.5 h": -3},
      {"smiles": "COc1ccc2c(c1)C(=O)NC1(CC2)CCN(Cc2ccncc2)C1", "note": "(configuration not stated)", "cytotoxicity at 70.5 h": -0.942},
      {"smiles": "COc1cccc(C2(NC(=O)CCNC(C)=O)CC2)c1", "cytotoxicity at 70.5 h": 5.65},
      {"smiles": "Cc1c(CN2CCCCC2)c(O)n(CCO)c(=O)c1C#N", "cytotoxicity at 70.5 h": -2.11},
      {"smiles": "CC(C)(C)n1cc(CNC2CCN(C(=O)c3ccco3)CC2)cn1", "cytotoxicity at 70.5 h": 1.29},
      {"smiles": "COCC(=O)N1CCC2(CC1)CNc1ccc(F)cc12", "cytotoxicity at 70.5 h": -9.36},
      {"smiles": "O=C1[C@H]2CN(Cc3ccc(F)cc3)C[C@H]2CN1c1cncnc1", "cytotoxicity at 70.5 h": 0.584},
      {"smiles": "CC(C)C(=O)N1CCN(Cc2csc(-c3ncccn3)n2)CC1", "cytotoxicity at 70.5 h": -2.05},
      {"smiles": "CCOCC(=O)N(Cc1ccccn1)Cc1ccccc1C", "cytotoxicity at 70.5 h": -4.52},
      {"smiles": "Cc1ccc(C2CN(Cc3cnc(-c4cccnc4)s3)CCO2)o1", "note": "(configuration not stated)", "cytotoxicity at 70.5 h": 7.31},
      {"smiles": "Cc1cccnc1NC(=O)C(C)Cn1nc(C(F)(F)F)cc1C", "note": "(configuration not stated)", "cytotoxicity at 70.5 h": -4.08},
      {"smiles": "Cc1cc(N2CCC(C(=O)NC3CC3)CC2)nc(-c2ccncc2)n1", "cytotoxicity at 70.5 h": -7.6},
      {"smiles": "CCOc1nnc(CN(CC)CC(=O)NC(C)(C)C)s1", "cytotoxicity at 70.5 h": 10.3},
      {"smiles": "COCc1ccccc1C(=O)N1CCCC(c2cc(C)[nH]n2)C1", "note": "(configuration not stated)", "cytotoxicity at 70.5 h": 26.2},
      {"smiles": "NC(=O)c1cc(C2CCCN(CCOCC3CC3)C2)n[nH]1", "note": "(configuration not stated)", "cytotoxicity at 70.5 h": -1.45},
      {"smiles": "Cc1ccn(-c2ccccc2NCc2cscn2)n1", "cytotoxicity at 70.5 h": 10.6},
      {"smiles": "Cc1ccsc1[C@@H]1CCN(C(=O)c2cc3ccccc3[nH]2)C[C@H]1O", "cytotoxicity at 70.5 h": 0.623},
      {"smiles": "CC(C)COc1cncc(N(C)C2CCN(c3ncccn3)CC2)n1", "cytotoxicity at 70.5 h": -12},
      {"smiles": "CC(C)CN1CC(C(=O)NCCc2ccc(OC(F)F)cc2)CC1=O", "note": "(configuration not stated)", "cytotoxicity at 70.5 h": 9.73},
      {"smiles": "COc1ccnc(NC2CCN(CC(=O)Nc3ccccc3)CC2)n1", "cytotoxicity at 70.5 h": 4.43},
      {"smiles": "Cc1cnn(CC2CCCN2C(=O)c2csc(C3CC3)n2)c1", "note": "(configuration not stated)", "cytotoxicity at 70.5 h": -0.994},
      {"smiles": "Nc1nnnn1NCc1cccc(Cl)c1Cl", "cytotoxicity at 70.5 h": 21.9},
      {"smiles": "CN(Cc1ccccn1)C(=O)CNC(=O)N1CCc2ccccc2C1", "cytotoxicity at 70.5 h": -10.7},
      {"smiles": "CCN(Cc1cccc(C)c1)Cn1nc(C)c2c(C)onc2c1=O", "cytotoxicity at 70.5 h": -10.8},
      {"smiles": "O=C1CCN(C(=O)NCCc2c[nH]c3ccc(Cl)cc23)CCN1", "cytotoxicity at 70.5 h": -8.44},
      {"smiles": "CN1CCN(C(=O)c2csnn2)c2ccccc21", "cytotoxicity at 70.5 h": 20.8},
      {"smiles": "O=S(=O)(c1ccccc1)N1CCC2(CCCN2Cc2cccnc2)C1", "note": "(configuration not stated)", "cytotoxicity at 70.5 h": 10.9},
      {"smiles": "COc1ccccc1CCN1CCCC(CN(C)Cc2cc(C)n[nH]2)C1", "note": "(configuration not stated)", "cytotoxicity at 70.5 h": -8.68},
      {"smiles": "Fc1cccc(C(NCc2ncc[nH]2)c2ccccc2)c1", "note": "(configuration not stated)", "cytotoxicity at 70.5 h": -3.27},
      {"smiles": "CCN(CC)CCCNC(=O)Nc1c(C)cccc1C(C)C", "cytotoxicity at 70.5 h": -4.07},
      {"smiles": "Cc1cc(C2CCCN2C(=O)NCc2cccnc2OC(C)C)on1", "note": "(configuration not stated)", "cytotoxicity at 70.5 h": -9.53},
      {"smiles": "CCC[C@@H]1CN(Cc2cc3c(cc2OC)OCCO3)C[C@H]1C(=O)O", "cytotoxicity at 70.5 h": -1.36},
      {"smiles": "COCCN1CCOCC12CCN(C(=O)c1c[nH]c3ccccc13)CC2", "cytotoxicity at 70.5 h": -13.9},
      {"smiles": "CO[C@@H]1CC[C@H]2[C@H]1OCCN2CCOCc1ccccc1", "cytotoxicity at 70.5 h": -12.3},
      {"smiles": "Cc1cccc(C(=O)NC(C(=O)NCc2ccc(O)nc2)C(C)C)c1", "note": "(configuration not stated)", "cytotoxicity at 70.5 h": -10.8},
      {"smiles": "COC(=O)N1CCC(c2nnc(Cn3ccnc3)n2C)CC1", "cytotoxicity at 70.5 h": -2.68},
      {"smiles": "COc1ccc(CC(=O)NCCCc2nnc3nc(C)cc(C)n23)cc1", "cytotoxicity at 70.5 h": -10.1},
      {"smiles": "O=C(C1CC=CC1)N1CCCn2nnc(CNc3ncccn3)c2C1", "cytotoxicity at 70.5 h": 0.685},
      {"smiles": "CC(NS(C)(=O)=O)c1nc(-c2ccc(Br)cc2)no1", "note": "(configuration not stated)", "cytotoxicity at 70.5 h": -5.32},
      {"smiles": "Cn1nc2c(c1NC(=O)c1ccc(Cl)s1)CCC2", "cytotoxicity at 70.5 h": -8.38},
      {"smiles": "CS(=O)(=O)N1CCOCC2(CCN(Cc3ccoc3)CC2)C1", "cytotoxicity at 70.5 h": -3.92},
      {"smiles": "CN(C)C(=O)Cc1ccccc1NCc1cccc(F)c1F", "cytotoxicity at 70.5 h": 0.378},
      {"smiles": "Cc1nc(N)cc(C2CCN2CCOc2ccccc2)n1", "note": "(configuration not stated)", "cytotoxicity at 70.5 h": -6.55},
      {"smiles": "O=C(NCCOC1CCCCC1)c1ccc(-c2ccco2)[nH]c1=O", "cytotoxicity at 70.5 h": 15.1},
      {"smiles": "Cn1cccc1C(O)CNC(=O)c1ccc(F)c(F)c1", "note": "(configuration not stated)", "cytotoxicity at 70.5 h": -13.5},
      {"smiles": "COc1ccc(CNC(=O)CNc2cc3c(cc2Cl)OCCCO3)cc1", "cytotoxicity at 70.5 h": -5.19},
      {"smiles": "Cc1ccc2c(n1)N(C)CCN(C(=O)NC1CC1)C2", "cytotoxicity at 70.5 h": 25.2},
      {"smiles": "Cc1cc(NC(=O)c2ccc(F)cc2F)n(C)n1", "cytotoxicity at 70.5 h": -10.6},
      {"smiles": "Cc1cc(C(=O)N2CCC(c3nccn3Cc3ccccn3)CC2)no1", "cytotoxicity at 70.5 h": -6.61},
      {"smiles": "CCc1ccc(CN2CCN(C(=O)C(C)C)[C@@H]3CS(=O)(=O)C[C@@H]32)cc1", "cytotoxicity at 70.5 h": 14.5},
      {"smiles": "CC(C)c1nnc(NC(=O)NCc2cccnc2NCCN(C)C)s1", "cytotoxicity at 70.5 h": 4.5},
      {"smiles": "CC(C)(C)C(O)CN1CCN(Cc2nccn2CC(F)(F)F)CC1", "note": "(configuration not stated)", "cytotoxicity at 70.5 h": 17.5},
      {"smiles": "CNC(=O)CN(C)C(=O)c1cc(Cl)c(I)cc1OC", "cytotoxicity at 70.5 h": -18.4},
      {"smiles": "Cc1cc(C)nc(-n2nc(C)c3c2NC(=O)CSC3c2cnn(C)c2)n1", "note": "(configuration not stated)", "cytotoxicity at 70.5 h": -31.4},
      {"smiles": "CC(c1ccc(F)cc1F)N1CCN(Cc2nccn2C)CC1", "note": "(configuration not stated)", "cytotoxicity at 70.5 h": -0.0589},
      {"smiles": "Cn1ccnc1CN1CC2(CCN(Cc3ccncc3)C2)C1", "cytotoxicity at 70.5 h": -0.993},
      {"smiles": "CN(C)C(=O)CO[C@H]1COCCN(C2CCOCC2)C1", "cytotoxicity at 70.5 h": -4.86},
      {"smiles": "CN(C)C1COC2(CCN(Cc3ccncc3)CC2)C1", "note": "(configuration not stated)", "cytotoxicity at 70.5 h": -7.75}
    ]}
  ]
}
